Source: patent US20120190648A1, “FLUORINATED CYCLOPROPANE ANALOGS OF GLUTAMIC ACID” (priority 2009, published 2012)
Like-named read-outs stand apart in the source and are kept apart here.

Target: mGlu4 receptor (Rattus norvegicus, UniProt P31423)
Assay: mGlu4 receptor test at different doses (1 nM to 1 mM) to determine EC50
Assay type: cell-based
Method: The compounds according to the invention have been tested on the mGlu4 receptor at different doses (between 1 nM and 1 mM) in order to determine their EC50 value. This test has been carried out according to the protocol described in: C. Selvam, C. Goudet, N. Oueslati, J.-P. Pin, F. Acher J. Med. Chem. 2007, 50, 4656-4664.

Chain of mGlu4 receptor (P31423 33-912): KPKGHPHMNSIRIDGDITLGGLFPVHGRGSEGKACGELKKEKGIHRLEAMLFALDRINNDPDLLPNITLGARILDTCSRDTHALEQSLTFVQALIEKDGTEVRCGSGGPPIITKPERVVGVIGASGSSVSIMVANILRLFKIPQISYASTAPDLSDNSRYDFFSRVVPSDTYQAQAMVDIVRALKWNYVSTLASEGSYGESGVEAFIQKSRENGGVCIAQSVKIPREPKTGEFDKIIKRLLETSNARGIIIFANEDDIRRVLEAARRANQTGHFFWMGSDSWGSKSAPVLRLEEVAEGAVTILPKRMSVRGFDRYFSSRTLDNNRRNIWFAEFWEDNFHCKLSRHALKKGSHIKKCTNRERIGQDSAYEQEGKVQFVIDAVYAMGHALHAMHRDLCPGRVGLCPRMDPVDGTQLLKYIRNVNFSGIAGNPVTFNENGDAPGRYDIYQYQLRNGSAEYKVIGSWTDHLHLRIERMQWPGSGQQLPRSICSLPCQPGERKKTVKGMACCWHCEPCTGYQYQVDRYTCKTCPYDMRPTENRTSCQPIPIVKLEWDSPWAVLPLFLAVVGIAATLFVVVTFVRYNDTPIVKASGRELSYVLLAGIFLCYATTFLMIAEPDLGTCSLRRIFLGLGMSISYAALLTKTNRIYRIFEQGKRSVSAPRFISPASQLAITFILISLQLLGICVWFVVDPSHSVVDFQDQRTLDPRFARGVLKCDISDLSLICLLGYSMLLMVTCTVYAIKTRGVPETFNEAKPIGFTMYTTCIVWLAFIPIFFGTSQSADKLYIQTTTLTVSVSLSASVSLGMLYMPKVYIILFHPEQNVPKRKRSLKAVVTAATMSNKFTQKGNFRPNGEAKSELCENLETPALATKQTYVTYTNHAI

EC50 (mGlu4 receptor, doses between 1 nM and 1 mM, protocol of Selvam et al. J. Med. Chem. 2007, 50, 4656-4664, read-out: EC50)	SMILES	EC50
	N[C@]1(C(=O)O)C[C@@]1(F)C(O)P(=O)(O)O (mixture of isomers) [cis-I-3]	27.4 µM
	NC1(C(=O)O)CC1(F)CP(=O)(O)O (racemic) [cis-I-4]	0.34 µM
85.6 µM	NC1(C(=O)O)CC1(F)CS(=O)(=O)O (racemic) [cis-I-6]	
